# Test results reported in patent US20240092799A1, “MNK INHIBITORS” (Hepagene Therapeutics (HK) Limited, priority 2020, published 2024).
# How the values were obtained:
# MNK2 = MNK2 (Homo sapiens (Human), UniProt Q9HBH9); experiment: MNK Biochemical Enzymatic Assay (ADP-Glo), MNK2 binding assay
# How it was run: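 Human MNK1 or MNK2 was preincubated with a 10-point, 1:3 serial dilution of compound for 15 min at 25 °C. Substrate was then added and the reaction ran 60 min at 25 °C. ADP formed was read by ADP-Glo luminescence, and IC50 came from non-linear regression.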
# MNK1 = MNK1 (Homo sapiens (Human), UniProt Q9BUB5); experiment: MNK Biochemical Enzymatic Assay (ADP-Glo), MNK1 binding assay
# MNK1, sequence (Q9BUB5 other isoform, or with tags, fused parts or gaps isoform Q9BUB5-2): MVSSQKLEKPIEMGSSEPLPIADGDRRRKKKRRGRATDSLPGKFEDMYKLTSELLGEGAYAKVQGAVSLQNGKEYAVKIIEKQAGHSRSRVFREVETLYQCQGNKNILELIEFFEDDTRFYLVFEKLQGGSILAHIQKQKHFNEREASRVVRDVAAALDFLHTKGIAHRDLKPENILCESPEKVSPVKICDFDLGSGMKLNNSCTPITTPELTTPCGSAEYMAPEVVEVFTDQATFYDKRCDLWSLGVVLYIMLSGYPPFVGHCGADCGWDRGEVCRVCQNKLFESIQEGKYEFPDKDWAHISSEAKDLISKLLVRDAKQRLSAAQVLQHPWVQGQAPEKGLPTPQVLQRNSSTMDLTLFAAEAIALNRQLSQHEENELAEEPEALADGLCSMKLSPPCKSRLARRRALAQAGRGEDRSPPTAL
# Experimental: MNK Biochemical Enzymatic Assay. This protocol establishes the binding assays for MNK1 and MNK2 using ADP-Glo assay. MNK phosphorylates the substrate and converts ATP to ADP, which was detected by Envision and used to reflect the reminding activity of MNK. Reagents and equipment used in the assay are listed below, followed by the protocol.
# • a) Add 50 μL compound to 384-well dilution plate • b) Dilute compound 1:3 in succession in DMSO for each column for 10+0 pts (refer to dilution plate map) • c) Transfer 0.1 μL diluted compound solution in each row to 384 assay plate using Echo, each column containing 2 replicates (refer to assay plate map) • d) Add 5 μL enzyme working solution to 384-well assay plate, centrifuge 1000 RPM for 1 min • e) Incubate at 25° C. for 15 min • f) Add 5 μL substrate working solution to initiate reaction • g) Incubate at 25° C. for 60 min • h) Add 10 μL ADP Glo reagent, centrifuge 1000 RPM for 1 min • i) Incubate at 25° C. for 60 min • j) Add 20 μL kinase detection reagent, centrifuge 1000 RPM for 1 min • k) Incubate at 25° C. for 60 min • l) Read on Envision for US LUM as RLU • m) Data analysis: IC50s were determined based on a non-linear regression analysis of data collected.
# MNK2, sequence (Q9HBH9 whole entry): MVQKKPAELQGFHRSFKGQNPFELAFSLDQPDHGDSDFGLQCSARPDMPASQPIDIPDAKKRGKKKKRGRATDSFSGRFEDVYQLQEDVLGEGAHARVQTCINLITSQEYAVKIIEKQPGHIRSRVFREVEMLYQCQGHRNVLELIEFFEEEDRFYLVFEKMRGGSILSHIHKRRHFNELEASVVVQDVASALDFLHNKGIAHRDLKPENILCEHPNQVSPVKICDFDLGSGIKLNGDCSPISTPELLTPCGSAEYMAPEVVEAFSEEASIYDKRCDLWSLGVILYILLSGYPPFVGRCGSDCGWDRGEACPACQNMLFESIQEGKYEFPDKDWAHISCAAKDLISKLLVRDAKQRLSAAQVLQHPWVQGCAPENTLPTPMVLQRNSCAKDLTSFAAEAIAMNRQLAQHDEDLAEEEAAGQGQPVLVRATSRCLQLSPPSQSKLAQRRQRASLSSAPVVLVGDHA
IC50 (MNK2) [nM],IC50 (MNK1) [nM],SMILES
0.1 to 10,0.1 to 10,"Cc1cc(Nc2cc(N)ncn2)c(=O)n2c1C(=O)N[C@@]21C[C@H]2CC[C@@H]1C2 [Compound IIb, (1R,2S,4S)-6′-((6-aminopyrimidin-4-yl)amino)-8′-methyl-2′H-spiro[bicyclo[2.2.1]heptane-2,3′-imidazo[1,5-a]pyridine]-1′,5′-dione]"
> 1000,> 1000,"Nc1cc(Nc2c3c(c4n(c2=O)C2(CCCCC2)NC4=O)CCC3)ncn1 [Compound I, 6′-((6-Aminopyrimidin-4-yl)amino)-8′,9′-dihydrospiro[cyclohexane-1,3′-cyclopenta[c]imidazo[1,5-a]pyridine]-1′,5′(2′H,7′H)-dione]"
